Laboratory results taken from patent US10894784B2, “Heteroarylbenzimidazole compounds” (BAYER PHARMA AKTIENGESELLSCHAFT, priority 2015, dated 2021).
Read-outs that look alike come from different tables or passages of the source.

Target: TBK1 (Homo sapiens (Human), UniProt Q9UHD2)
Assay: TBK1 low ATP kinase assay (in vitro assay 1)
Assay type: biochemical
[1] = in vitro assay 1, read-out: TBK1 low ATP kinase assay IC50
[2] = TBK1 low ATP kinase assay IC50, in vitro assay 1

TBK1, sequence (Q9UHD2 whole entry): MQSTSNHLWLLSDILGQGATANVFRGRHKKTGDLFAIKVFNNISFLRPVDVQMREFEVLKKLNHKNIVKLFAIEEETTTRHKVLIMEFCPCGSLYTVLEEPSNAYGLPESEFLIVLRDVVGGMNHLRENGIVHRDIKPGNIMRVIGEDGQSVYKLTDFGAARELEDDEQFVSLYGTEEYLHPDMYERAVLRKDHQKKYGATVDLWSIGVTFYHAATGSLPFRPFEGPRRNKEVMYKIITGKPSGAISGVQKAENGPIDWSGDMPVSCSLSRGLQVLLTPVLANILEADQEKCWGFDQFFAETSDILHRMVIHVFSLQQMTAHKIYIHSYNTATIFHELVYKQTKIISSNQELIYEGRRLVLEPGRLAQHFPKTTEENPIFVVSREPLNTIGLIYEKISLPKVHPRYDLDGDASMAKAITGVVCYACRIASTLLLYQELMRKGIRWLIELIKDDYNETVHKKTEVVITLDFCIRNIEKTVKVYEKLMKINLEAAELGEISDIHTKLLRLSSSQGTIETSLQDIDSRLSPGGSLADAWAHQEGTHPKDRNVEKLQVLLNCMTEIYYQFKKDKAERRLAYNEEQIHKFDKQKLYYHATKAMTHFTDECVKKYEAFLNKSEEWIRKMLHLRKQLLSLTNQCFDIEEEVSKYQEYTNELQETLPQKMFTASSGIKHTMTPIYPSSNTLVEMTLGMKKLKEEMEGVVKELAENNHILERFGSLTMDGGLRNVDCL

Row | Compound | IC50 [1] | IC50 [2]
1 | COc1cc(-c2ccc3nc(Nc4cc(CN5CCN(C(=O)CC(F)(F)F)CC5)ccn4)[nH]c3c2)ccn1 [Example 02.03, 3,3,3-trifluoro-1-{4-[(2-{[6-(2-methoxypyridin-4-yl)-1H-benzimidazol-2-yl]amino}pyridin-4-yl)methyl]piperazin-1-yl}propan-1-one] | 36.8 nM | –
2 | COc1cncnc1-c1ccc2nc(Nc3cc(CN4CCN(C(=O)N5CCCC5)CC4)ccn3)[nH]c2c1 [Example 35.01.05, {4-[(2-{[6-(5-methoxypyrimidin-4-yl)-1H-benzimidazol-2-yl]amino}pyridin-4-yl)methyl]piperazin-1-yl}(pyrrolidin-1-yl)methanone] | 48 nM | –
3 | Cc1cc(-c2ccc3nc(Nc4cc(C(C)N5CCN(C(=O)CC(F)(F)F)CC5)ccn4)[nH]c3c2)ncn1 (single isomer, unassigned) [Example 30.03.01.A, 3,3,3-trifluoro-1-{4-[(1R or 1S)-1-(2-{[6-(6-methylpyrimidin-4-yl)-1H-benzimidazol-2-yl]amino}pyridin-4-yl)ethyl]piperazin-1-yl}propan-1-one] | – | 18 nM
4 | CC(c1ccnc(Nc2nc3ccc(-c4ccncn4)cc3[nH]2)c1)N1CCN(C(=O)C2CCC2)CC1 (single isomer, unassigned) [Example 23.05.03.B, cyclobutyl{4-[(1S or 1R)-1-(2-{[6-(pyrimidin-4-yl)-1H-benzimidazol-2-yl]amino}pyridin-4-yl)ethyl]piperazin-1-yl}methanone] | 14.5 nM | –
5 | CCOc1cnc(C)cc1-c1ccc2nc(Nc3cc(CN4CCN(C(=O)CC5CC5)CC4)ccn3)[nH]c2c1 [Example 09.03, 2-cyclopropyl-1-{4-[(2-{[6-(5-ethoxy-2-methylpyridin-4-yl)-1H-benzimidazol-2-yl]amino}pyridin-4-yl)methyl]piperazin-1-yl}ethanone] | 324 nM | –
6 | CC(c1ccnc(Nc2nc3ccc(-c4cnn(CC5CC5(F)F)c4)cc3[nH]2)c1)N1CCN(C(=O)OC(C)(C)C)CC1 (single isomer, unassigned) [Example 55.01, tert-butyl 4-[(1R or 1S)-1-(2-{[6-(1-{[(1RS)-2,2-difluorocyclopropyl]methyl}-1H-pyrazol-4-yl)-1H-benzimidazol-2-yl]amino}pyridin-4-yl)ethyl]piperazine-1-carboxylate] | 4.05 nM | –
7 | CCOc1nccc(-c2ccc3nc(Nc4cc(CN5CCN(C(=O)C6CCC6)CC5)ccn4)[nH]c3c2)n1 [Example 26.01.04, cyclobutyl{4-[(2-{[6-(2-ethoxypyrimidin-4-yl)-1H-benzimidazol-2-yl]amino}pyridin-4-yl)methyl]piperazin-1-yl}methanone] | 11.6 nM | –
8 | CC(C)(C)OC(=O)N1CCN(Cc2ccnc(Nc3nc4ccc(-c5nc(C6CC6)no5)cc4[nH]3)c2)CC1 [Example 17.01, tert-butyl 4-[(2-{[6-(3-cyclopropyl-1,2,4-oxadiazol-5-yl)-1H-benzimidazol-2-yl]amino}pyridin-4-yl)methyl]piperazine-1-carboxylate] | 97.8 nM | –

Other lines, results leading:

Row | IC50 [1] | IC50 [2] | Compound
9 | 680 nM | – | Cc1noc(-c2ccc3nc(Nc4cc(CN5CCN(C=O)CC5)ccn4)[nH]c3c2)n1 [Example 101.01, 4-[(2-{[6-(3-methyl-1,2,4-oxadiazol-5-yl)-1H-benzimidazol-2-yl]amino}pyridin-4-yl)methyl]piperazine-1-carbaldehyde]
10 | 8.7 nM | – | COc1c(NCC2CC2)ncnc1-c1ccc2nc(Nc3cc(CN4CCN(C(=O)C5CC5)CC4)ccn3)[nH]c2c1 [Example 109.01.03, cyclopropyl[4-({2-[(6-{6-[(cyclopropylmethyl)amino]-5-methoxypyrimidin-4-yl}-1H-benzimidazol-2-yl)amino]pyridin-4-yl}methyl)piperazin-1-yl]methanone]
11 | 7.12 nM | – | O=C(C1CC1)N1CCN(Cc2ccnc(Nc3nc4ccc(-c5ncnc6ccoc56)cc4[nH]3)c2)CC1 [Example 168.03, cyclopropyl{4-[(2-{[6-(furo[3,2-d]pyrimidin-4-yl)-1H-benzimidazol-2-yl]amino}pyridin-4-yl)methyl]piperazin-1-yl}methanone]
12 | 20 nM | – | CC(c1ccnc(Nc2nc3ccc(-c4cnn(CC5CCC5)c4)c(Cl)c3[nH]2)c1)N1CCN(C(=O)OC(C)(C)C)CC1 (single isomer, unassigned) [Example 75.01, tert-butyl 4-{(1R or 1S)-1-[2-({7-chloro-6-[1-(cyclobutylmethyl)-1H-pyrazol-4-yl]-1H-benzimidazol-2-yl}amino)pyridin-4-yl]ethyl}piperazine-1-carboxylate]
13 | 556 nM | – | O=C(CC(F)(F)F)N1CCN(Cc2ccnc(Nc3nc4ccc(-c5ncccn5)cc4[nH]3)c2)CC1 [Example 180.02, 3,3,3-trifluoro-1-{4-[(2-{[6-(pyrimidin-2-yl)-1H-benzimidazol-2-yl]amino}pyridin-4-yl)methyl]piperazin-1-yl}propan-1-one]
14 | 50.6 nM | – | CC(c1ccnc(Nc2nc3ccc(-c4cc(C(F)(F)F)ncn4)c(F)c3[nH]2)c1)N1CCN(C(=O)C2CC2)CC1 (single isomer, unassigned) [Example 173.03, cyclopropyl(4-{(1R or 1S)-1-[2-({7-fluoro-6-[6-(trifluoromethyl)pyrimidin-4-yl]-1H-benzimidazol-2-yl}amino)pyridin-4-yl]ethyl}piperazin-1-yl)methanone]
15 | 36 nM | – | CC(c1ccnc(Nc2nc3ccc(-c4ccnn4C)cc3[nH]2)c1)N1CCN(C(=O)OC(C)(C)C)CC1 (single isomer, unassigned) [Example 123.01, tert-butyl 4-[(1R or 1S)-1-(2-{[6-(1-methyl-1H-pyrazol-5-yl)-1H-benzimidazol-2-yl]amino}pyridin-4-yl)ethyl]piperazine-1-carboxylate]
16 | – | 1.8 nM | CC(c1ccnc(Nc2nc3ccc(-c4cc(OCC5CC5)ncn4)cc3[nH]2)c1)N1CCN(C(=O)CC(F)(F)F)CC1 (single isomer, unassigned) [Example 85.03, 1-(4-{(1R or 1S)-1-[2-({6-[6-(cyclopropylmethoxy)pyrimidin-4-yl]-1H-benzimidazol-2-yl}amino)pyridin-4-yl]ethyl}piperazin-1-yl)-3,3,3-trifluoropropan-1-one]
17 | 7.2 nM | – | O=C(CC(F)(F)F)N1CCN(Cc2ccnc(Nc3nc4ccc(-c5cc(N6CCOCC6)ncn5)cc4[nH]3)c2)CC1 [Example 94.01, 3,3,3-trifluoro-1-(4-{[2-({6-[6-(morpholin-4-yl)pyrimidin-4-yl]-1H-benzimidazol-2-yl}amino)pyridin-4-yl]methyl}piperazin-1-yl)propan-1-one]
